The text below walks through data of patent US8637550B2, “Heteroaryl diamide compounds useful as MMP-13 inhibitors” (Boehringer Ingelheim International GmbH, priority 2008, dated 2014).

The target in the test is MMP-13 (Homo sapiens, UniProt P45452). The test is described as follows: EnzoLyte 520 Generic MMP Assay Kit, 5-FAM/QXL520 FRET peptide substrate. Type of test: biochemical. The source says: The EnzoLyte™ 520 Generic MMP Assay Kit (AnaSpec Inc.) can detect the activity of several MMPs including MMP-1, 2, 3, 7, 8, 9, 13, and 14. This kit uses a 5-FAM/QXL™520 fluorescence resonance energy transfer (FRET) peptide as an MMP substrate.

By IC50 is commonly meant the concentration that inhibits the measured activity by half. Lower therefore signals greater potency in that assay. `CNC(=O)[C@@H](NC(=O)c1ccc(-c2cccc(CNC(=O)c3ccn(C(F)F)n3)c2)o1)C(C)C` [1-Difluoromethyl-1H-pyrazole-3-carboxylic acid 3-[5-((S)-2-methyl-1-methylcarbamoyl-propylcarbamoyl)-furan-2-yl]-benzylamide] yielded a half-inhibitory concentration (IC50) of 14 nM. The figure for `CNC(=O)[C@@H](NC(=O)c1ccc(-c2ccc(Cl)cc2)o1)C1CCNCC1` [5-(4-Chlorophenyl)-N-[(1S)-2-(methylamino)-2-oxo-1-(piperidin-4-yl)ethyl]furan-2-carboxamide] is 430 nM; for `CNC(=O)[C@@H](NC(=O)c1csc(-c2ccc(Cl)cc2)n1)C1CCCCC1` [2-(4-Chlorophenyl)-N-[(1S)-1-cyclohexyl-2-(methylamino)-2-oxoethyl]-1,3-thiazole-4-carboxamide] it is 470 nM; for `CNC(=O)[C@@H](NC(=O)c1ccc(-c2ccc(OCc3ccccc3)cn2)o1)C1CCCCC1` [5-[5-(Benzyloxy)pyridin-2-yl]-N-[(1S)-1-cyclohexyl-2-(methylamino)-2-oxoethyl]furan-2-carboxamide] it is 10 nM. For `CNC(=O)[C@@H](NC(=O)c1ccc(-c2ccc(NC(=O)c3cn4c(C#N)cccc4n3)cc2)o1)C1CCCCC1` [5-Cyano-N-[4-(5-{[(1S)-1-cyclohexyl-2-(methylamino)-2-oxoethyl]carbamoyl}furan-2-yl)phenyl]imidazo[1,2-a]pyridine-2-carboxamide] the value was 103 nM. The figure for `CNC(=O)[C@@H](NC(=O)c1ccc(-c2ccc(S(=O)(=O)NC)cc2)o1)C1CCCCC1` [N-[(1S)-1-cyclohexyl-2-(methylamino)-2-oxoethyl]-5-[4-(methylsulfamoyl)phenyl]furan-2-carboxamide] is 480 nM; for `CNC(=O)[C@@H](NC(=O)c1ccc(-c2cccc(CNC(=O)c3cc(C)c(C)s3)c2)o1)C1CCCCC1` [N-[(1S)-1-cyclohexyl-2-(methylamino)-2-oxoethyl]-5-[3-({[(4,5-dimethylthiophen-2-yl)carbonyl]amino}methyl)phenyl]furan-2-carboxamide] it is 50 nM.

As to `CCNC(=O)[C@@H](NC(=O)c1ccc(-c2ccc(C#N)cc2)o1)C1CCCCC1` [5-(4-cyanophenyl)-N-[(1S)-1-cyclohexyl-2-(ethylamino)-2-oxoethyl]furan-2-carboxamide], the half-inhibitory concentration (IC50) worked out at 295 nM. For `CNC(=O)[C@@H](NC(=O)c1ccc(-c2ccc(Cl)cc2)o1)C1CCCC1` [5-(4-Chlorophenyl)-N-[(1S)-1-cyclopentyl-2-(methylamino)-2-oxoethyl]furan-2-carboxamide] the value was 465 nM; for `CNC(=O)[C@@H](NC(=O)c1ccc(-c2cccc(CNC(=O)c3cnccn3)c2)o1)C(C)C` [N-[3-(5-{[(1S)-2-methyl-1-(methylcarbamoyl)propyl]carbamoyl}-2-furyl)benzyl]pyrazine-2-carboxamide], 32 nM.

Consider `CNC(=O)[C@@H](NC(=O)c1ccc(-c2cccc(CNC(=O)c3nc(C(F)(F)F)cs3)c2)o1)C(C)C` [4-Trifluoromethyl-thiazole-2-carboxylic acid 3-[5-((S)-2-methyl-1-methylcarbamoyl-propylcarbamoyl)-furan-2-yl]-benzylamide], for which the IC50 came to 6 nM.

As to `CNC(=O)[C@@H](NC(=O)c1ccc(-c2ccc(-c3ccc4[nH]ccc4c3)cn2)o1)C(C)C` [5-[5-(1H-Indol-5-yl)-pyridin-2-yl]-furan-2-carboxylic acid ((S)-2-methyl-1-methylcarbamoyl-propyl)-amide], half-maximal inhibition (IC50) was put at 260 nM.

Regarding `CNC(=O)[C@@H](NC(=O)c1ccc(-c2cccc(CNC(=O)c3ccn(C)n3)c2)o1)C1CCCCC1` [N-[3-(5-{[(1S)-1-cyclohexyl-2-(methylamino)-2-oxoethyl]carbamoyl}furan-2-yl)benzyl]-1-methyl-1H-pyrazole-3-carboxamide], the concentration for half-maximal inhibition (IC50) is 24 nM. The figure for `CCc1ccnc(C(=O)NCc2cccc(-c3ccc(C(=O)N[C@H](C(=O)NC)C4CCCCC4)o3)c2)c1` [N-[3-(5-{[(1S)-1-cyclohexyl-2-(methylamino)-2-oxoethyl]carbamoyl}furan-2-yl)benzyl]-4-ethylpyridine-2-carboxamide] is 38 nM.

For `CNC(=O)[C@@H](NC(=O)c1ccc(-c2cccc(CNC(=O)c3cc4ccccc4o3)c2)o1)C1CCCCC1` [N-[3-(5-{[(1S)-1-cyclohexyl-2-(methylamino)-2-oxoethyl]carbamoyl}furan-2-yl)benzyl]-1-benzofuran-2-carboxamide], the IC50 turned out to be 11 nM. The figure for `CNC(=O)[C@@H](NC(=O)c1ccc(-c2ccc(NC(=O)c3cncc(C)c3)cc2)o1)C1CCCCC1` [N-[4-(5-{[(1S)-1-cyclohexyl-2-(methylamino)-2-oxoethyl]carbamoyl}furan-2-yl)phenyl]-5-methylpyridine-3-carboxamide] is 150 nM.

`NC(=O)COCCNC(=O)[C@@H](NC(=O)c1ccc(-c2ccc(Cl)cc2)o1)C1CCCCC1` [N-[(1S)-2-{[2-(2-amino-2-oxoethoxy)ethyl]amino}-1-cyclohexyl-2-oxoethyl]-5-(4-chlorophenyl)furan-2-carboxamide] displayed an IC50 of 325 nM. For `CNC(=O)[C@@H](NC(=O)c1ccc(-c2cccc(CNC(=O)OCC(C)C)c2)o1)C1CCCCC1` [2-Methylpropyl [3-(5-{[(1S)-1-cyclohexyl-2-(methylamino)-2-oxoethyl]carbamoyl}furan-2-yl)benzyl]carbamate] the value was 240 nM. The figure for `CNC(=O)[C@@H](NC(=O)c1ccc(-c2ccc(OCc3ccnc(C)c3)cn2)o1)C1CCCCC1` [N-[(1S)-1-cyclohexyl-2-(methylamino)-2-oxoethyl]-5-{5-[(2-methylpyridin-4-yl)methoxy]pyridin-2-yl}furan-2-carboxamide] is 1 nM; for `CNC(=O)[C@@H](NC(=O)c1ccc(-c2ccc(OCc3cncn3C)cn2)o1)C1CCCCC1` [N-[(1S)-1-cyclohexyl-2-(methylamino)-2-oxoethyl]-5-{5-[(1-methyl-1H-imidazol-5-yl)methoxy]pyridin-2-yl}furan-2-carboxamide] it is 18 nM; for `CNC(=O)[C@@H](NC(=O)c1ccc(-c2ccc(-c3ccc(F)cc3)cn2)o1)C(C)C` [5-[5-(4-Fluoro-phenyl)-pyridin-2-yl]-furan-2-carboxylic acid ((S)-2-methyl-1-methylcarbamoyl-propyl)-amide] it is 78 nM. The figure for `CNC(=O)[C@@H](NC(=O)c1ccc(-c2cccc(CNC(=O)c3ccc(N(C)C)cc3)c2)o1)C(C)C` [5-{3-[(4-Dimethylamino-benzoylamino)-methyl]-phenyl}-furan-2-carboxylic acid ((S)-2-methyl-1-methylcarbamoyl-propyl)-amide] is 110 nM. The molecule `CNC(=O)[C@@H](NC(=O)c1ccc(-c2ccc(OCc3[nH]cnc3C)cn2)o1)C1CCOCC1` [5-[5-(5-Methyl-3H-imidazol-4-ylmethoxy)-pyridin-2-yl]-furan-2-carboxylic acid [(S)-methylcarbamoyl-(tetrahydro-pyran-4-yl)-methyl]-amide] came in with an IC50 of 415 nM. For `CNC(=O)[C@@H](NC(=O)c1ccc(-c2ccc(OCc3cn(C)cn3)cn2)o1)C1CCNCC1` [N-[(1S)-2-(methylamino)-2-oxo-1-(piperidin-4-yl)ethyl]-5-{5-[(1-methyl-1H-imidazol-4-yl)methoxy]pyridin-2-yl}furan-2-carboxamide] the value was 163 nM. The figure for `CNC(=O)[C@@H](NC(=O)c1ccc(-c2ccc(OCc3ccccc3)cn2)o1)C(C)(C)O` [5-(5-Benzyloxy-pyridin-2-yl)-furan-2-carboxylic acid ((S)-2-hydroxy-2-methyl-1-methylcarbamoyl-propyl)-amide] is 18 nM. For `CNC(=O)[C@@H](NC(=O)c1ccc(-c2cccc(CNC(=O)c3cncc(C)c3)c2)o1)C1CCCCC1` [N-[3-(5-{[(1S)-1-cyclohexyl-2-(methylamino)-2-oxoethyl]carbamoyl}furan-2-yl)benzyl]-5-methylpyridine-3-carboxamide] the value was 30 nM; for `CNC(=O)[C@@H](NC(=O)c1ccc(-c2cccc(CNC(=O)c3ccccc3)c2)o1)C(C)C` [5-[3-(Benzoylamino-methyl)-phenyl]-furan-2-carboxylic acid ((S)-2-methyl-1-methylcarbamoyl-propyl)-amide], 205 nM. Molecule `CCNC(=O)[C@@H](NC(=O)c1ccc(-c2ccc(OCc3ccccc3)cn2)o1)C1CCCCC1` [5-[5-(Benzyloxy)pyridin-2-yl]-N-[(1S)-1-cyclohexyl-2-(ethylamino)-2-oxoethyl]furan-2-carboxamide] came in with an IC50 of 17 nM. For `CNC(=O)[C@@H](NC(=O)c1ccc(-c2ccc(NC(=O)c3cc(C)[nH]n3)cc2)o1)C1CCCCC1` [N-[4-(5-{[(1S)-1-cyclohexyl-2-(methylamino)-2-oxoethyl]carbamoyl}furan-2-yl)phenyl]-5-methyl-1H-pyrazole-3-carboxamide] the value was 87 nM. With `CNC(=O)[C@@H](NC(=O)c1ccc(-c2ccc(OCc3ccccc3)cn2)o1)C1CCOCC1` [5-[5-(Benzyloxy)pyridin-2-yl]-N-[(1S)-2-(methylamino)-2-oxo-1-(tetrahydro-2H-pyran-4-yl)ethyl]furan-2-carboxamide], inhibition was half-maximal at 3 nM (IC50). `CNC(=O)[C@@H](NC(=O)c1ccc(-c2cccc(CNC(=O)C3CCOCC3)c2)o1)C(C)C` [N-[3-(5-{[(1S)-2-methyl-1-(methylcarbamoyl)propyl]carbamoyl}-2-furyl)benzyl]tetrahydro-2H-pyran-4-carboxamide] yielded a 50% inhibitory concentration (IC50) of 337 nM. The figure for `CNC(=O)[C@@H](NC(=O)c1ccc(-c2ccc(OCc3c[nH]cn3)cn2)o1)C1CCCCC1` [N-[(1S)-1-cyclohexyl-2-(methylamino)-2-oxoethyl]-5-{5-(1H-imidazol-5-ylmethoxy)pyridin-2-yl]furan-2-carboxamide] is 19 nM; for `CNC(=O)[C@@H](NC(=O)c1ccc(-c2ccc(OCc3cc(C)nn3C)cn2)o1)C1CCCCC1` [5-[5-(2,5-Dimethyl-2H-pyrazol-3-ylmethoxy)-pyridin-2-yl]-furan-2-carboxylic acid ((S)-cyclohexyl-methylcarbamoyl-methyl)-amide] it is 2 nM.
